In ChEMBL document CHEMBL1201862, “PubChem BioAssay data set” (2004):
Calls of active or inactive are those of the source. Rule as the data show it, for most assays here: actives have a measured EC50 and inactives only a lower limit.

Columns and labels:
[1] = cells; assay type: functional, cell-based
[2] = cells; assay type: functional, cell-based; remark: listed apart in the source
[3] = target: T1, Mannose-6-phosphate isomerase (Homo sapiens, UniProt P34949); experiment: human PMI inhibitors, high substrate, primary screen, biochemical, fluorescence intensity, high mannose 6-phosphate (AID 1220)
T1 sequence (P34949 whole entry): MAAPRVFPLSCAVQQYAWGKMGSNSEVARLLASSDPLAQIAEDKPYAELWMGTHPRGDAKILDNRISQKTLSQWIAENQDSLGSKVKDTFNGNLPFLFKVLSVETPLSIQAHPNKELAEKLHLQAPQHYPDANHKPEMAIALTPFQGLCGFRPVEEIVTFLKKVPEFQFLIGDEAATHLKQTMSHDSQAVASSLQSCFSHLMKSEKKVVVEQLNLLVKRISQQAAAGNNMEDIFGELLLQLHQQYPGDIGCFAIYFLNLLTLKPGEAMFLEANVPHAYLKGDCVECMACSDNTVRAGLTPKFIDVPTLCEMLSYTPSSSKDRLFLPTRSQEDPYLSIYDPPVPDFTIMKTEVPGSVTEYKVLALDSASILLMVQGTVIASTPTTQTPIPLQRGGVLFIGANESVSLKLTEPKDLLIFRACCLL

[4] = target: Voltage-dependent T-type calcium channel subunit alpha-1H (Homo sapiens, UniProt O95180); assay type: functional;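 also: channel activity triggered by adding a high calcium stimulation buffer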
[5] = target: T2, Acyl-homoserine lactone acylase PvdQ (Pseudomonas aeruginosa (strain LESB58), UniProt Q9I194); experiment: P. aeruginosa PvdQ acylase inhibitors, dose response, biochemical, fluorescence, plate reader and imaging, cherry-picks (AID 493231)
T2 sequence (Q9I194 whole entry): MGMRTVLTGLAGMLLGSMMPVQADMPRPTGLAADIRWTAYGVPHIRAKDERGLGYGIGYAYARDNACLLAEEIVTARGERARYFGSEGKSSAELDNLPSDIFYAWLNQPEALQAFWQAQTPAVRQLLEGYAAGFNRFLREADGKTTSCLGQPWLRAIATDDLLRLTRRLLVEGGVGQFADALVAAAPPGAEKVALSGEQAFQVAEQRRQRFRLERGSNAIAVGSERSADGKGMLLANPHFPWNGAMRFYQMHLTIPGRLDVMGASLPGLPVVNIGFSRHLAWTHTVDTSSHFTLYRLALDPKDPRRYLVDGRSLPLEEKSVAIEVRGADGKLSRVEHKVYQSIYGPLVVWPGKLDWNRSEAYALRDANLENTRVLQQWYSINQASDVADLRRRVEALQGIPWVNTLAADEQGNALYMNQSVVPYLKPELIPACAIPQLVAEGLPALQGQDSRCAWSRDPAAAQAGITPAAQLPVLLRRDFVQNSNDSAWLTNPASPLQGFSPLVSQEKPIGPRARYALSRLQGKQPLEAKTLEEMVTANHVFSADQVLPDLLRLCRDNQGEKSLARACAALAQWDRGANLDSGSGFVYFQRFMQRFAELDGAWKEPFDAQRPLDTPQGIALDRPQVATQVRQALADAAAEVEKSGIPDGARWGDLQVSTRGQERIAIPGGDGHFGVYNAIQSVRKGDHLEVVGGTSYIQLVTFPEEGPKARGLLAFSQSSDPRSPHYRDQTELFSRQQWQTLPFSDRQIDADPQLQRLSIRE

[6] = inhibitors of SNCA 5'UTR-driven reporter translation, confirmation, H4 neuroglioma cells, luminescence (AID 1988); assay type: functional, cell-based
[7] = inhibitors of firefly luciferase expression or activity, dose response, H4 neuroglioma cells, luminescence (AID 1990); assay type: functional, cell-based
[8] = Luminescence Cell-Based Dose Response HTS to Identify Inhibitors of 5'UTR Stem-Loop Driven Prion Protein mRNA Translation in H4 Neuroglioblastoma Cells. [Related pubchem assays: 1827 (Project Summary), 1813 (Primary HTS)]; assay type: functional
[9] = cytotoxicity in HEK-293T cells, dose response, cytotoxicity control for BCR NF-kB inhibitor project, luminescence, B-cell screen hits (AID 489021); assay type: functional, cell-based;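 also: HEK-293T cells carrying an NF-kB luciferase reporter; cells exposed to compound for about 14 hours before viability readout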
[10] = tested on: HEK293; experiment: inhibitors of LMP1-driven NF-kB reporter, dose response, cell-based, HEK293, luciferase, cherry-pick (AID 588343); assay type: functional; settings: Homo sapiens
[11] = target: T3, Replicative DNA helicase DnaB (Mycobacterium tuberculosis, UniProt P9WMR3); experiment: DnaB intein splicing inhibitors, dose response, biochemical, cell-free fluorescence (AID 449749); assay type: functional
T3 sequence (P9WMR3 whole entry): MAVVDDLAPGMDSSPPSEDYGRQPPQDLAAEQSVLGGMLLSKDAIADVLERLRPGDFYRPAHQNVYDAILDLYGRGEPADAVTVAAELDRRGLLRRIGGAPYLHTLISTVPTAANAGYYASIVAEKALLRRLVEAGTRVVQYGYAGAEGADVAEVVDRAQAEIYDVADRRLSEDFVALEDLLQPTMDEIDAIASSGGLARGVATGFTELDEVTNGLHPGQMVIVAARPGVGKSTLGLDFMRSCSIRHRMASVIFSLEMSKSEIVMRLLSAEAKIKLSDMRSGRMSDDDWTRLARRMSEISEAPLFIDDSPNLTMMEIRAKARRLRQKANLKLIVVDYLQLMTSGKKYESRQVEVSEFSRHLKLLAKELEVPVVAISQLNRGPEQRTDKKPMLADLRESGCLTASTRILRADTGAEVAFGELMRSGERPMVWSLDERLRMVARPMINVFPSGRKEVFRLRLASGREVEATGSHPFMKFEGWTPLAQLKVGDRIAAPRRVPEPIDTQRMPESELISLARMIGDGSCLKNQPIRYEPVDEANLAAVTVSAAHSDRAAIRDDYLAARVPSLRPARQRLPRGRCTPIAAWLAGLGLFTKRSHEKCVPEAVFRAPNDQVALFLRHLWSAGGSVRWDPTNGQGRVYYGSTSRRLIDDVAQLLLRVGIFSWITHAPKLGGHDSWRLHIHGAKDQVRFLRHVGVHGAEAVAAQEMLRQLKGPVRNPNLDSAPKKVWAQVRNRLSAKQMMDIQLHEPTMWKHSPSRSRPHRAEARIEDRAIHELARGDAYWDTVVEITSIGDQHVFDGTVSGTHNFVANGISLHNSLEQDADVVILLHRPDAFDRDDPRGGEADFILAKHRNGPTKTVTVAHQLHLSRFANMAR

[12] = target: T4, Protein RecA (Mycobacterium tuberculosis, UniProt P9WHJ3); experiment: Fluorescence Cell-Free Homogeneous Dose Retest to Identify Inhibitors of RecA-Intein Splicing Activity. [Related pubchem assays (depositor defined):AID2097, AID2223, AID489010, AID492950]; assay type: functional
T4 sequence (P9WHJ3 whole entry): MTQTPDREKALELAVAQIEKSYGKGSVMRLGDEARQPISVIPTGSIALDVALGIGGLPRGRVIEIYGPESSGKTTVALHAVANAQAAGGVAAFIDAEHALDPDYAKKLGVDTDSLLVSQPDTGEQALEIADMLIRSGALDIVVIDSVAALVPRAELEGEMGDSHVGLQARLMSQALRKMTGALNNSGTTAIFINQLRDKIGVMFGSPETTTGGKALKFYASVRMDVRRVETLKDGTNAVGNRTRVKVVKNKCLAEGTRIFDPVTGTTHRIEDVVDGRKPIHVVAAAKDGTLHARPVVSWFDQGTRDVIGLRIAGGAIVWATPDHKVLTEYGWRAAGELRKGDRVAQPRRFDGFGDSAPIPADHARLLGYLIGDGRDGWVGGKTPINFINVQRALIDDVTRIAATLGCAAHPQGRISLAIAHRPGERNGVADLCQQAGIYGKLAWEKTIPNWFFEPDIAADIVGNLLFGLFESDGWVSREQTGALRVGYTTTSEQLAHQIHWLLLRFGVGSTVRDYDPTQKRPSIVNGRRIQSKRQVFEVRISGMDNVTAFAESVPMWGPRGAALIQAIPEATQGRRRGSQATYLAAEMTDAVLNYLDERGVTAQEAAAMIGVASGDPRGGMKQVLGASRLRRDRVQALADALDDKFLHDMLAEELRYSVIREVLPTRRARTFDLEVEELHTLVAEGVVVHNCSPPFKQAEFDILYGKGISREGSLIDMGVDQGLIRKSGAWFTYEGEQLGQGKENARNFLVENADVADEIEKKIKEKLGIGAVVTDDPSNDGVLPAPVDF

[13] = target: Cytochrome P450 3A4 (Homo sapiens, UniProt P08684); settings: Potency;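 also: confirmatory qHTS run detecting inhibitors and substrates of CYP3A4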
[14] = cytotoxicity toward DRD oncogenic fibroblasts, dose response, cell-based, non-viral oncogenic, luminescence (AID 1934); assay type: functional; settings: Homo sapiens
[15] = tested on: BJ; experiment: cytotoxicity toward BJ-TERT-LT-ST fibroblasts, dose response, cell-based, RAS-independent, luminescence (AID 1935); assay type: functional, Homo sapiens; settings: Homo sapiens, BJ;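 also: BJ fibroblasts immortalized with TERT plus LT and ST oncogenes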
[16] = tested on: BJ; experiment: cells; assay type: functional, cell-based, Homo sapiens; settings: Homo sapiens, BJ
[17] = tested on: BJ; experiment: cytotoxicity toward BJ-TERT fibroblasts, dose response, cell-based, RAS-independent, luminescence (AID 1933); assay type: functional, Homo sapiens; settings: Homo sapiens, BJ
[18] = NIH-3T3 fibroblast cytotoxicity, dose response, cytotoxicity control, cell-based, fluorescence, Alamar Blue, secondary assay (AID 2327); assay type: functional;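 also: NIH-3T3 mouse fibroblasts cultured with fluconazole at 8 µg/mL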
[19] = C. albicans growth with fluconazole, confirmation, fluorescence, retest (AID 2467); assay type: functional, cell-based
[20] = tested on: INS1; experiment: beta cell apoptosis inhibitors, cytokine rescue, dose response, luminescence, retest (AID 449756); assay type: functional, cell-based; settings: Rattus norvegicus;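 also: cell death triggered by IL-1 beta plus TNF-alpha plus IFN-gamma mixture; protective hits raise ATP signal compared with cytokine alone wells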
[21] = target: T5, Rac GTPase-activating protein 1 (Homo sapiens, UniProt Q9H0H5); experiment: MgcRacGAP GTPase-activating activity inhibitors, confirmation, biochemical, ADP Hunter fluorescence, primary and confirmatory (AID 624330); assay type: functional
T5 sequence (Q9H0H5 whole entry): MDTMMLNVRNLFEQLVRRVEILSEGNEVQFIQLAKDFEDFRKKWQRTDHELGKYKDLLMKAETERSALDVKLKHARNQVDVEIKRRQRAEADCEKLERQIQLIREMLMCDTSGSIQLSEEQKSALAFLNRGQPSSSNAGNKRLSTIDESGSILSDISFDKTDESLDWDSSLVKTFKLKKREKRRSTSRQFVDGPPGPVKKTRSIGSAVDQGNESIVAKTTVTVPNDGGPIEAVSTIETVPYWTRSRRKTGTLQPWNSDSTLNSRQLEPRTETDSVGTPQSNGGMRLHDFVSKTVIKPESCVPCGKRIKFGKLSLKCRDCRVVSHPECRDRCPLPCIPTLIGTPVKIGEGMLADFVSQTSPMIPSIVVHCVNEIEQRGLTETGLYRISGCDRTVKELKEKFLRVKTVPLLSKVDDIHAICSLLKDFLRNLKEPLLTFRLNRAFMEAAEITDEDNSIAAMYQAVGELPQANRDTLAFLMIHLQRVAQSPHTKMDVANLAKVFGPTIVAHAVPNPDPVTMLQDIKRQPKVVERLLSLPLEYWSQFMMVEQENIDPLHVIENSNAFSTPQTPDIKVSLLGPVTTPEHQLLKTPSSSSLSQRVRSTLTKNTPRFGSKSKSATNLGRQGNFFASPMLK

Chain of Cytochrome P450 3A4 (P08684 whole entry): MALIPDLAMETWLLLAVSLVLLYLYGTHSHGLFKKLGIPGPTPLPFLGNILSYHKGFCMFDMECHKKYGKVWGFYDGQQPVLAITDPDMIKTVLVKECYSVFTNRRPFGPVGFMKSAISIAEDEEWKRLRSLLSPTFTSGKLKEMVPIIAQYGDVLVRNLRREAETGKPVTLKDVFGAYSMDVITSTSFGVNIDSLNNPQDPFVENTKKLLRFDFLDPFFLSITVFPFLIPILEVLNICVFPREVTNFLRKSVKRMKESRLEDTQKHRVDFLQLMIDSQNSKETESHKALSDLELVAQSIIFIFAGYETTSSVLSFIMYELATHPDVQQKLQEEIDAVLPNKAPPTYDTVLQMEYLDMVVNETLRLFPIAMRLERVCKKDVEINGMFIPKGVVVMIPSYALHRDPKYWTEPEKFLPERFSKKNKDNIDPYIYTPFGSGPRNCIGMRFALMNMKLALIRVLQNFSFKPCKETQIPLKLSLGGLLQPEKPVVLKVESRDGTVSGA
Chain of Voltage-dependent T-type calcium channel subunit alpha-1H (O95180 whole entry): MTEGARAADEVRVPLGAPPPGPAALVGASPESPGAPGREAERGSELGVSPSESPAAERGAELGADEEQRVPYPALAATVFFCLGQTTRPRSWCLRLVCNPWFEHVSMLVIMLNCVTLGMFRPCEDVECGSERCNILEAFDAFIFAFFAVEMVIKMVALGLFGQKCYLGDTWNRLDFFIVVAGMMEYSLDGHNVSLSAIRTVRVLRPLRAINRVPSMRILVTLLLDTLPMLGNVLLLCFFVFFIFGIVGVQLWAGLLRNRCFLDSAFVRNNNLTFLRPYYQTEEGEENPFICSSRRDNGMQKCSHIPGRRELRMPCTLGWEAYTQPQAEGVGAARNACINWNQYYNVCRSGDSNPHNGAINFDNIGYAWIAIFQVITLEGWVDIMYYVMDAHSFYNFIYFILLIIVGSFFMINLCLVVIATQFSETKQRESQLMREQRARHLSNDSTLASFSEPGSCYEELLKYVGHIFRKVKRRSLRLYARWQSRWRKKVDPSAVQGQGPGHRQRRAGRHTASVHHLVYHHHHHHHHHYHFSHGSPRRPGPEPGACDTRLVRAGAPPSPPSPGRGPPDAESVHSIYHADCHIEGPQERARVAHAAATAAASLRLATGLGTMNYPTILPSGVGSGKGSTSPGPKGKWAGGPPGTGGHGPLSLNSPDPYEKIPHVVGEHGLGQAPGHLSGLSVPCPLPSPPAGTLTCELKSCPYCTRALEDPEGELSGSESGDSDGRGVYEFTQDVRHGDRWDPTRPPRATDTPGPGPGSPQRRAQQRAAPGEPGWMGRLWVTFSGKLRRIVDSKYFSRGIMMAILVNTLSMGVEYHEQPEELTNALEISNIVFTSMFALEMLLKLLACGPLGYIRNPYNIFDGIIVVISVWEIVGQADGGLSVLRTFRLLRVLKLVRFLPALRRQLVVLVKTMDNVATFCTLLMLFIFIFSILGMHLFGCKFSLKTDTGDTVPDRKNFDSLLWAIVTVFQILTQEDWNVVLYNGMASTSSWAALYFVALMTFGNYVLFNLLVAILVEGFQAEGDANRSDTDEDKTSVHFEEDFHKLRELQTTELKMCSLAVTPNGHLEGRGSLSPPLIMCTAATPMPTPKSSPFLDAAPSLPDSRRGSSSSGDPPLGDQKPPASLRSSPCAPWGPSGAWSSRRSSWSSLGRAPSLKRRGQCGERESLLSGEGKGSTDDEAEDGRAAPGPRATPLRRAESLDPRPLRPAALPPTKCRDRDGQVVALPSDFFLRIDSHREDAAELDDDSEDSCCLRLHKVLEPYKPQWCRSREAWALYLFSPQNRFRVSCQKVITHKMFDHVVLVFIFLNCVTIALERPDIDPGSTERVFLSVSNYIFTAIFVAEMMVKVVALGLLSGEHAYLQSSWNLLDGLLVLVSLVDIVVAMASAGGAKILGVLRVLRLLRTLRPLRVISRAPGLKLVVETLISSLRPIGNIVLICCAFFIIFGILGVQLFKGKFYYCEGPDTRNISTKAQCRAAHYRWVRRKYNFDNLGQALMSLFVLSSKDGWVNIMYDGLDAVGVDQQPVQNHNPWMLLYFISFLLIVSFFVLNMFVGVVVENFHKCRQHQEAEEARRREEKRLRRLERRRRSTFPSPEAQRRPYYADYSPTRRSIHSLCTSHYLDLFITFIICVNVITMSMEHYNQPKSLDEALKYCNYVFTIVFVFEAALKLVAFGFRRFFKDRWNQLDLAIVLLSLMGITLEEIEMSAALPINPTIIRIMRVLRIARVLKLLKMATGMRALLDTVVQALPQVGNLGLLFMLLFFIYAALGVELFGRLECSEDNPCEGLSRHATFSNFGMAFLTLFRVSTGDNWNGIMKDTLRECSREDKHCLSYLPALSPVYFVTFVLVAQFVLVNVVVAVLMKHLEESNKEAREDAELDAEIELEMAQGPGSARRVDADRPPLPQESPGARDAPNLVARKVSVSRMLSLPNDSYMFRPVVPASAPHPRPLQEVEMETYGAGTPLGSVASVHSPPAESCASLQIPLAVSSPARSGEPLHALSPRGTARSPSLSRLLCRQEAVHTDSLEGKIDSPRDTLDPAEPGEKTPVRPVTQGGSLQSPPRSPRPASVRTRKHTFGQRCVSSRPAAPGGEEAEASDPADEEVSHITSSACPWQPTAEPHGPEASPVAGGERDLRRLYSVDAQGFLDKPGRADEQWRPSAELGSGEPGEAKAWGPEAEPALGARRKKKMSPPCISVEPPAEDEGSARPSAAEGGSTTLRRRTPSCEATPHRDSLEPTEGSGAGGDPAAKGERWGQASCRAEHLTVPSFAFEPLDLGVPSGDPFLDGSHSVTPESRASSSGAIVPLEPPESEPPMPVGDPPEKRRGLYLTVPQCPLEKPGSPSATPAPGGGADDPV

Compound: Cc1nc(NCCc2ccccc2)c(C#N)c(C)c1[N+](=O)[O-]
- EC50 [1]: > 350 µM (not active)
- EC50 [2]: > 350 µM (not active)

Compound: CCOc1cc(N2CCOCC2)c(OCC)cc1N=C(S)NCCCOC
- IC50 [3]: > 50 µM (not active)

Compound: O=C(CN1CCN(c2ccccn2)CC1)N(c1ccccc1)c1ccc2ccccc2c1
- EC50 [4]: 6.52 µM (active)

Compound: Brc1ccc(-c2nnc(-c3ccco3)o2)cc1
- AC50 [5]: 46.2 µM (active)

Compound: O=C(CCCN1C(=O)/C(=C/c2ccccc2Cl)SC1=S)NNC(=O)c1ccccc1Cl
- EC50 [6]: 7.8 µM (active)
- EC50 [7]: 5.95 µM (active)
- EC50 [8]: 10.5 µM (active)
- IC50 [9]: > 80 µM (inactive)
- AC50 [10]: 9.18 µM (active)

Compound: Cc1ccccc1NC(=O)c1ccc(CN2CCc3ccccc3C2)cc1
- EC50 [4]: 2.28 µM (active)

Compound: Cc1nn(Cc2ccccc2)c(C)c1NC(=O)c1cc(-c2ccco2)on1
- EC50 [4]: 9.33 µM (active)

Compound: CCCc1n[nH]c2c1C(c1ccoc1)C(C#N)=C(N)O2 (stereo not drawn)
- EC50 [1]: > 350 µM (not active)
- AC50 [11]: 4.51 µM (active)
- EC50 [12]: 2.39 µM (active)
- EC50 [2]: > 350 µM (not active)

Compound: CCN(CC)CCCCn1c(-c2ccccc2)nc2c(NC3CCCCC3)nc(C)nc21
- AC50 [13]: 25.1 µM (inconclusive)

Compound: O=S1(=O)CCOC[C@H](c2ccccc2)N1Cc1cccc(Cl)c1
- AC50 [5]: 12.7 µM (active)

Compound: O=C1C=C(c2cc(F)ccc2F)C[C@@H](c2ccc(F)cc2)C1
- AC50 [5]: 9.05 µM (active)

Compound: Cc1ccccc1-n1c(SCc2c(C)noc2C)nnc1-c1c[nH]c2ccccc12
- IC50 [9]: > 80 µM (inactive)

Compound: Cc1nc(N2CCOCC2)c2nc(-c3ccccc3)n(CCN3CCCC3)c2n1
- AC50 [13]: 20 µM (inconclusive)

Compound: CCOCCCNc1nc2c(C)cccn2c(=O)c1/C=C1\SC(=S)N(C(C)CC)C1=O (stereo not drawn)
- EC50 [14]: 38.5 µM (active)
- EC50 [15]: > 150 µM (inconclusive)
- IC50 [9]: > 80 µM (inactive)
- EC50 [16]: > 150 µM (not active)
- EC50 [17]: > 150 µM (not active)

Compound: Cc1ccc(/C=N/NC(=O)c2c(-c3ccccc3)noc2C)c(O)c1
- EC50 [18]: > 150 µM (inactive)
- EC50 [1]: 12.4 µM (active)
- EC50 [19]: 2.83 µM (active)
- AC50 [20]: 2.33 µM (active)
- EC50 [2]: > 350 µM (not active)

Compound: CCOc1cc(/C=N/NC(=O)c2c(-c3ccccc3)noc2C)ccc1O
- EC50 [1]: > 350 µM (not active)
- IC50 [21]: 55.5 µM (active)
- EC50 [2]: > 350 µM (not active)

Compound: C/C(=N\NC(=O)CN1CCCCC1)c1ccccc1O
- EC50 [1]: 29.7 µM (active)
- EC50 [2]: > 350 µM (not active)

Compound: Nc1nc[nH]n1 [AMITROLE]
- AC50 [13]: 15.8 µM (inconclusive)

Compound: COc1cc(O)c2c(=O)cc(C)oc2c1CC=C(C)C [HETEROPEUCENIN, METHYL ETHER]
- AC50 [13]: 39.8 µM (inconclusive)
